Read-outs that look alike come from different tables or passages of the source.
Experiments:
MCF-7 = assay: MTT cytotoxicity assay, MCF-7; format: cell-based, human
Procedure: The compounds were incubated with the cells for 72 hours in a five-dose assay ranging from 0.01 to 100 μM concentration. At the end of the incubation, the MTT solution was added to test the percentage growth of tumor cells.
For the drug treatment experiments, the cancer cells were treated with the compounds (predissolved in DMSO) at a five-dose assay ranging from 0.01 to 100 μM concentration. […] After 4 h incubation, the formazan crystal formed in the well was dissolved with […] of DMSO for optical density reading at 570 nm. The GI50 value was calculated by nonlinear regression analysis (GraphPad Prism).

A549/ATCC = assay: NCI-60 cytotoxicity; format: cell-based, human; conditions: NCI-60 Non-Small Cell Lung Cancer, 48 h
Procedure: (§1) Cell growth inhibition (GI50 in Table 3) was calculated relative to cells without compound treatment and the time zero control.
(§2) Regarding Table 8, according to the NCI established procedures, the cells were incubated with 67 or 50 for 48 hours and stained with sulforhodamine B dye.

ACHN = assay: NCI-60 cytotoxicity; format: cell-based, human; conditions: NCI-60 Renal Cancer, 48 h
Procedure: as §1, §2

CCRF-CEM = assay: NCI-60 cytotoxicity; format: cell-based, human; conditions: NCI-60 Leukemia, 48 h
Procedure: as §1, §2

COLO 205 = assay: NCI-60 cytotoxicity; format: cell-based, human; conditions: NCI-60 Colon Cancer, 48 h
Procedure: as §1, §2

EKVX = assay: NCI-60 cytotoxicity; format: cell-based, human; conditions: NCI-60 Non-Small Cell Lung Cancer, 48 h
Procedure: as §1, §2

HCT-15 = assay: NCI-60 cytotoxicity; format: cell-based, human; conditions: NCI-60 Colon Cancer, 48 h
Procedure: as §1, §2

HOP-62 = assay: NCI-60 cytotoxicity; format: cell-based, human; conditions: NCI-60 Non-Small Cell Lung Cancer, 48 h
Procedure: as §1, §2

HOP-92 = assay: NCI-60 cytotoxicity; format: cell-based, human; conditions: NCI-60 Non-Small Cell Lung Cancer, 48 h
Procedure: as §1, §2

HS 578T = assay: NCI-60 cytotoxicity; format: cell-based, human; conditions: NCI-60 Breast Cancer, 48 h
Procedure: as §1, §2

HT29 = assay: NCI-60 cytotoxicity; format: cell-based, human; conditions: NCI-60 Colon Cancer, 48 h
Procedure: as §1, §2

KM12 = assay: NCI-60 cytotoxicity; format: cell-based, human; conditions: NCI-60 Colon Cancer, 48 h
Procedure: as §1, §2

M14 = assay: NCI-60 cytotoxicity; format: cell-based, human; conditions: NCI-60 Melanoma, 48 h
Procedure: as §1, §2

MALME-3M = assay: NCI-60 cytotoxicity; format: cell-based, human; conditions: read-out: GI50 (μM) MALME-3M; NCI-60 Melanoma, 48 h
Procedure: as §1, §2

MCF7 = assay: NCI-60 cytotoxicity; format: cell-based, human; conditions: NCI-60 Breast Cancer, 48 h
Procedure: as §1, §2

MDA-MB-435 = assay: NCI-60 cytotoxicity; format: cell-based, human; conditions: NCI-60 Melanoma, 48 h
Procedure: as §1, §2

NCI-H226 = assay: NCI-60 cytotoxicity; format: cell-based, human; conditions: NCI-60 Non-Small Cell Lung Cancer, 48 h
Procedure: as §1, §2

NCI-H23 = assay: NCI-60 cytotoxicity; format: cell-based, human; conditions: NCI-60 Non-Small Cell Lung Cancer, 48 h
Procedure: as §1, §2

NCI-H322M = assay: NCI-60 cytotoxicity; format: cell-based, human; conditions: NCI-60 Non-Small Cell Lung Cancer, 48 h
Procedure: as §1, §2

NCI/ADR-RES = assay: NCI-60 cytotoxicity; format: cell-based, human; conditions: NCI-60 Ovarian Cancer, 48 h
Procedure: as §1, §2

OVCAR-3 = assay: NCI-60 cytotoxicity; format: cell-based, human; conditions: NCI-60 Ovarian Cancer, 48 h
Procedure: as §1, §2

OVCAR-4 = assay: NCI-60 cytotoxicity; format: cell-based, human; conditions: NCI-60 Ovarian Cancer, 48 h
Procedure: as §1, §2

PC-3 = assay: NCI-60 cytotoxicity; format: cell-based, human; conditions: NCI-60 Prostate Cancer, 48 h
Procedure: as §1, §2

RPMI-8226 = assay: NCI-60 cytotoxicity; format: cell-based, human; conditions: NCI-60 Leukemia, 48 h
Procedure: as §1, §2

SF-268 = assay: NCI-60 cytotoxicity; format: cell-based, human; conditions: NCI-60 CNS Cancer, 48 h
Procedure: as §1, §2

SF-295 = assay: NCI-60 cytotoxicity; format: cell-based, human; conditions: NCI-60 CNS Cancer, 48 h
Procedure: as §1, §2

SF-539 = assay: NCI-60 cytotoxicity; format: cell-based, human; conditions: NCI-60 CNS Cancer, 48 h
Procedure: as §1, §2

SK-MEL-2 = assay: NCI-60 cytotoxicity; format: cell-based, human; conditions: NCI-60 Melanoma, 48 h
Procedure: as §1, §2

SK-OV-3 = assay: NCI-60 cytotoxicity; format: cell-based, human; conditions: NCI-60 Ovarian Cancer, 48 h
Procedure: as §1, §2

SNB-19 = assay: NCI-60 cytotoxicity; format: cell-based, human; conditions: NCI-60 CNS Cancer, 48 h
Procedure: as §1, §2

SNB-75 = assay: NCI-60 cytotoxicity; format: cell-based, human; conditions: NCI-60 CNS Cancer, 48 h
Procedure: as §1, §2

SR = assay: NCI-60 cytotoxicity; format: cell-based, human; conditions: NCI-60 Leukemia, 48 h
Procedure: as §1, §2

T-47D = assay: NCI-60 cytotoxicity; format: cell-based, human; conditions: NCI-60 Breast Cancer, 48 h
Procedure: as §1, §2

TK-10 = assay: NCI-60 cytotoxicity; format: cell-based, human; conditions: NCI-60 Renal Cancer, 48 h
Procedure: as §1, §2

U251 = assay: NCI-60 cytotoxicity; format: cell-based, human; conditions: NCI-60 CNS Cancer, 48 h
Procedure: as §1, §2

UACC-257 = assay: NCI-60 cytotoxicity; format: cell-based, human; conditions: NCI-60 Melanoma, 48 h
Procedure: as §1, §2

UACC-62 = assay: NCI-60 cytotoxicity; format: cell-based, human; conditions: NCI-60 Melanoma, 48 h
Procedure: as §1, §2

UO-31 = assay: NCI-60 cytotoxicity; format: cell-based, human; conditions: NCI-60 Renal Cancer, 48 h
Procedure: as §1, §2

[1] = 72 h, Table 7, read-out: GI50 ± SC (μM) MCF-7

Structure (SMILES): COc1cc2c(=O)n(CCN)c3c4cc5c(cc4ccc3c2cc1OC)OCO5 [Compound 67, 12-(2-aminoethyl)-2,3-dimethoxy-[1,3]dioxolo[4′,5′:4,5]benzo[1,2-c]phenanthridin-13(12-H)-one]
- GI50 (MCF-7; [1]): 0.1 ± 0.001 µM
- GI50 (A549/ATCC): 0.584 µM
- GI50 (ACHN): 0.366 µM
- GI50 (CCRF-CEM): 0.15 µM
- GI50 (COLO 205): 0.29 µM
- GI50 (EKVX): 1.36 µM
- GI50 (HCT-15): 0.42 µM
- GI50 (HOP-62): 0.399 µM
- GI50 (HOP-92): 3.56 µM
- GI50 (HS 578T): 1.96 µM
- GI50 (HT29): 0.168 µM
- GI50 (KM12): 1.1 µM
- GI50 (M14): 0.324 µM
- GI50 (MALME-3M): 0.613 µM
- GI50 (MCF7): 0.164 µM
- GI50 (MDA-MB-435): 0.759 µM
- GI50 (NCI-H226): 1.34 µM
- GI50 (NCI-H23): 0.451 µM
- GI50 (NCI-H322M): 0.99 µM
- GI50 (NCI/ADR-RES): 1.01 µM
- GI50 (OVCAR-3): 0.826 µM
- GI50 (OVCAR-4): 0.782 µM
- GI50 (PC-3): 0.532 µM
- GI50 (RPMI-8226): 0.257 µM
- GI50 (SF-268): 0.442 µM
- GI50 (SF-295): 0.279 µM
- GI50 (SF-539): 1.06 µM
- GI50 (SK-MEL-2): 3.01 µM
- GI50 (SK-OV-3): 1.24 µM
- GI50 (SNB-19): 0.398 µM
- GI50 (SNB-75): 0.596 µM
- GI50 (SR): 0.0907 µM
- GI50 (T-47D): 0.368 µM
- GI50 (TK-10): 1.35 µM
- GI50 (U251): 0.26 µM
- GI50 (UACC-257): 1.9 µM
- GI50 (UACC-62): 0.278 µM
- GI50 (UO-31): 0.35 µM

Structure (SMILES): CNCCn1c(=O)c2cc(OC)c(OC)cc2c2ccc3cc4c(cc3c21)OCO4 [Compound 50, 2,3-dimethoxy-12-(2-(methylamino)ethyl)-[1,3]dioxolo[4′5′:4,5]benzo[1,2-c]phenanthridin-13(12H)-one]
- GI50 (MCF-7; [1]): 0.09 µM
- GI50 (MCF-7; drug-resistance panel, read-out: GI50 ± SD (μM) Parental cell line MCF-7): 0.1 ± 0.001 µM
- GI50 (A549/ATCC): 0.0948 µM
- GI50 (ACHN): 0.0856 µM
- GI50 (CCRF-CEM): 0.0201 µM
- GI50 (COLO 205): 0.0605 µM
- GI50 (EKVX): 0.202 µM
- GI50 (HCT-15): 0.116 µM
- GI50 (HOP-62): 0.0439 µM
- GI50 (HOP-92): 0.184 µM
- GI50 (HS 578T): 0.904 µM
- GI50 (HT29): 0.0508 µM
- GI50 (KM12): 0.238 µM
- GI50 (M14): 0.0581 µM
- GI50 (MALME-3M): 0.174 µM
- GI50 (MCF7): 0.0292 µM
- GI50 (MDA-MB-435): 0.118 µM
- GI50 (NCI-H226): 0.172 µM
- GI50 (NCI-H23): 0.0906 µM
- GI50 (NCI-H322M): 0.147 µM
- GI50 (NCI/ADR-RES): 0.165 µM
- GI50 (OVCAR-3): 0.166 µM
- GI50 (OVCAR-4): 0.154 µM
- GI50 (PC-3): 0.112 µM
- GI50 (RPMI-8226): 0.0763 µM
- GI50 (SF-268): 0.0903 µM
- GI50 (SF-295): 0.0346 µM
- GI50 (SF-539): 0.124 µM
- GI50 (SK-MEL-2): 0.393 µM
- GI50 (SK-OV-3): 0.157 µM
- GI50 (SNB-19): 0.116 µM
- GI50 (SNB-75): 0.0885 µM
- GI50 (SR): 0.0173 µM
- GI50 (T-47D): 0.0757 µM
- GI50 (TK-10): 0.316 µM
- GI50 (U251): 0.0394 µM
- GI50 (UACC-257): 0.122 µM
- GI50 (UACC-62): 0.0451 µM
- GI50 (UO-31): 0.104 µM
- median lethal dose (LD50) (i.p., dose to kill half of mice after 7 days): 192 mg/kg
- mouse survival (mouse, in vivo, ip, 192 mg/kg): three mice survived
- mouse survival (single i.p. dose 122.9 mg/kg, 7 days): all mice survived
- mouse survival (single i.p. dose 153.6 mg/kg, 7 days): four mice survived
- mouse survival (single i.p. dose 240 mg/kg, 7 days): two mice survived
- mouse survival (single i.p. dose 300 mg/kg, 7 days): All mice died within 5 days
